Source: patent publication US9732119B2, “Immunomodulators” (BRISTOL-MYERS SQUIBB COMPANY, priority 2014, dated 2017)
pIC50: −log10 of the molar value.

The compounds below were run against T1, PD-1-Ig binding to PD-L1-TVMV-His (PD-L1-His) (Homo sapiens, UniProt Q9NZQ7) (assay: PD-1/PD-L1 Homogenous Time-Resolved Fluorescence (HTRF) binding assay). Conditions: PD-1-Ig (20 nM) / PD-L1-His (10 nM); numeric values.
T1 construct: hPDL1(19-239)-TVMV-His; made in house; host or cells: HEK293T cells
Outline: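 HTRF competition: compound pre-incubated 15 min with PD-L1-His (10 nM final), then PD-1-Ig (20 nM final) added for 15 min in dPBS, 0.1% BSA, 0.05% Tween-20. Detection with Eu-cryptate anti-Ig (1 nM) and APC anti-His (20 nM) antibodies.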

T1 sequence (Q9NZQ7 with tags, fused parts or gaps): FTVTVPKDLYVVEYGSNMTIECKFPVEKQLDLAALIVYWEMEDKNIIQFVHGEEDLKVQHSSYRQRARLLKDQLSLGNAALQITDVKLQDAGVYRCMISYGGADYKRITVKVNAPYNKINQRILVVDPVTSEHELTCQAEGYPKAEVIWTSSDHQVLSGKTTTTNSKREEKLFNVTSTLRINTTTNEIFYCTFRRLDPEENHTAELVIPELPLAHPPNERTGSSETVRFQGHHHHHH

pIC50	Structure (SMILES)
8.00	CCCC[C@H]1C(=O)N(C)[C@@H](CCCC)C(=O)N[C@@H](CC(C)C)C(=O)N[C@H](C(N)=O)CNCC(=O)N[C@@H](Cc2ccc(F)cc2)C(=O)N2CCCC[C@H]2C(=O)N[C@@H](CC(N)=O)C(=O)N2CCC[C@H]2C(=O)N[C@@H](Cc2c[nH]cn2)C(=O)N[C@@H](CCC(=O)O)C(=O)N2C[C@H](O)C[C@H]2C(=O)N[C@@H](Cc2c[nH]c3ccccc23)C(=O)N[C@@H](C)C(=O)N[C@@H](Cc2cn(CC(=O)O)c3ccccc23)C(=O)N1C [Example 9052]
5.00	C=C(C)C[C@@H]1NC(=O)[C@H](C)N(C)C(=O)[C@H](Cc2ccccc2)NC(=O)CNC[C@@H](C(=O)NCC(N)=O)NC(=O)[C@H](CC(C)C)NC(=O)[C@H](CCCC)N(C)C(=O)[C@H](CCCC)N(C)C(=O)[C@H](Cc2c[nH]c3ccccc23)NC(=O)[C@H](CC(C)C)NC(=O)[C@H](Cc2c[nH]c3ccccc23)NC(=O)[C@@H]2CCCN2C(=O)[C@H](CC(C)C)NC(=O)[C@H](CC(C)C)NC(=O)[C@@H]2CCCN2C1=O [Example 10005]

Same assay, conditions: PD-1-Ig (20 nM) / PD-L1-His (10 nM); range classes

pIC50	Structure (SMILES)
8.00 to 9.00	CCCC[C@H]1C(=O)N(C)[C@@H](CCCC)C(=O)N[C@@H](CC(C)C)C(=O)N[C@H](C(N)=O)CNCC(=O)N[C@@H](Cc2ccc(F)cc2)C(=O)N2CCCC[C@H]2C(=O)N[C@@H](CC(N)=O)C(=O)N2CCCC2C(=O)N[C@@H](Cc2c[nH]cn2)C(=O)N[C@@H](CCC(N)=O)C(=O)N2C[C@H](O)C[C@H]2C(=O)N[C@@H](Cc2c[nH]c3ccccc23)C(=O)N[C@@H](C)C(=O)N[C@@H](Cc2cn(CC(=O)O)c3ccccc23)C(=O)N1C (stereo partly shown) [Example 9053]
8.00 to 9.00	CCCC[C@H]1C(=O)N(C)[C@@H](CCCC)C(=O)N[C@@H](CCC(=O)O)C(=O)N[C@H](C(N)=O)CNCC(=O)N[C@@H](Cc2ccc(O)cc2)C(=O)N2CCCC[C@H]2C(=O)N[C@@H](CC(N)=O)C(=O)N2CCC[C@H]2C(=O)N[C@@H](Cc2c[nH]cn2)C(=O)N[C@@H](CC(=O)O)C(=O)N2C[C@H](O)C[C@H]2C(=O)N[C@@H](Cc2c[nH]c3ccccc23)C(=O)N[C@@H](C)C(=O)N[C@@H](Cc2cn(CC(=O)O)c3ccccc23)C(=O)N1C [Example 9054]
8.00 to 9.00	CCCC[C@H]1C(=O)N(C)[C@@H](CCCC)C(=O)N[C@@H](CCC(=O)O)C(=O)N[C@H](C(N)=O)CNCC(=O)N[C@@H](Cc2ccc(O)cc2)C(=O)N2CCCC[C@H]2C(=O)N[C@@H](CC(N)=O)C(=O)N2CCC[C@H]2C(=O)N[C@@H](Cc2c[nH]cn2)C(=O)N[C@@H](CCC(=O)O)C(=O)N2C[C@H](O)C[C@H]2C(=O)N[C@@H](Cc2c[nH]c3ccccc23)C(=O)N[C@@H](C)C(=O)N[C@@H](Cc2cn(CC(=O)O)c3ccccc23)C(=O)N1C [Example 9055]
8.00 to 9.00	CCCC[C@H]1C(=O)N(C)[C@@H](CCCC)C(=O)N[C@@H](CCC(=O)O)C(=O)N[C@H](C(N)=O)CNCC(=O)N[C@@H](Cc2ccc(O)cc2)C(=O)N2CCCC[C@H]2C(=O)N[C@@H](CC(N)=O)C(=O)N2CCC[C@H]2C(=O)N[C@@H](Cc2c[nH]cn2)C(=O)N[C@@H](CCC(N)=O)C(=O)N2C[C@H](O)C[C@H]2C(=O)N[C@@H](Cc2c[nH]c3ccccc23)C(=O)N[C@@H](C)C(=O)N[C@@H](Cc2cn(CC(=O)O)c3ccccc23)C(=O)N1C [Example 9056]
8.00 to 9.00	CCCC[C@H]1C(=O)N(C)[C@@H](CCCC)C(=O)N[C@@H](CCC(=O)O)C(=O)N[C@H](C(N)=O)CNCC(=O)N[C@@H](Cc2ccc(F)cc2)C(=O)N2CCCC[C@H]2C(=O)N[C@@H](CC(N)=O)C(=O)N2CCC[C@H]2C(=O)N[C@@H](Cc2c[nH]cn2)C(=O)N[C@@H](CC(=O)O)C(=O)N2C[C@H](O)C[C@H]2C(=O)N[C@@H](Cc2c[nH]c3ccccc23)C(=O)N[C@@H](C)C(=O)N[C@@H](Cc2cn(CC(=O)O)c3ccccc23)C(=O)N1C [Example 9057]
8.00 to 9.00	CCCC[C@H]1C(=O)N(C)[C@@H](CCCC)C(=O)N[C@@H](CCC(=O)O)C(=O)N[C@H](C(N)=O)CNCC(=O)N[C@@H](Cc2ccc(F)cc2)C(=O)N2CCCC[C@H]2C(=O)N[C@@H](CC(N)=O)C(=O)N2CCC[C@H]2C(=O)N[C@@H](Cc2c[nH]cn2)C(=O)N[C@@H](CCC(=O)O)C(=O)N2C[C@H](O)C[C@H]2C(=O)N[C@@H](Cc2c[nH]c3ccccc23)C(=O)N[C@@H](C)C(=O)N[C@@H](Cc2cn(CC(=O)O)c3ccccc23)C(=O)N1C [Example 9058]
8.00 to 9.00	CCCC[C@H]1C(=O)N(C)[C@@H](CCCC)C(=O)N[C@@H](CCC(=O)O)C(=O)N[C@H](C(N)=O)CNCC(=O)N[C@@H](Cc2ccc(F)cc2)C(=O)N2CCCC[C@H]2C(=O)N[C@@H](CC(N)=O)C(=O)N2CCC[C@H]2C(=O)N[C@@H](Cc2c[nH]cn2)C(=O)N[C@@H](CCC(N)=O)C(=O)N2C[C@H](O)C[C@H]2C(=O)N[C@@H](Cc2c[nH]c3ccccc23)C(=O)N[C@@H](C)C(=O)N[C@@H](Cc2cn(CC(=O)O)c3ccccc23)C(=O)N1C [Example 9059]

The next lines start with the compound.

Structure (SMILES)	pIC50
CCCC[C@H]1C(=O)N(C)[C@@H](CCCC)C(=O)N[C@@H](CC(C)C)C(=O)N[C@H](C(N)=O)CNCC(=O)N[C@@H](Cc2ccc(O)cc2)C(=O)N2CCCC[C@H]2C(=O)N[C@@H](CC(N)=O)C(=O)N2CCC[C@H]2C(=O)N[C@@H](Cc2c[nH]cn2)C(=O)N[C@@H](CCC(=O)O)C(=O)N2C[C@H](O)C[C@H]2C(=O)N[C@@H](Cc2c[nH]c3ccccc23)C(=O)N[C@@H](C)C(=O)N[C@@H](Cc2cn(CC(=O)O)c3ccccc23)C(=O)N1C [Example 9050]	8.00 to 9.00
CCCC[C@H]1C(=O)N(C)[C@@H](CCCC)C(=O)N[C@@H](CC(C)C)C(=O)N[C@H](C(N)=O)CNCC(=O)N[C@@H](Cc2ccc(O)cc2)C(=O)N2CCCC[C@H]2C(=O)N[C@@H](CC(N)=O)C(=O)N2CCC[C@H]2C(=O)N[C@@H](Cc2c[nH]cn2)C(=O)N[C@@H](CCC(N)=O)C(=O)N2C[C@H](O)C[C@H]2C(=O)N[C@@H](Cc2c[nH]c3ccccc23)C(=O)N[C@@H](C)C(=O)N[C@@H](Cc2cn(CC(=O)O)c3ccccc23)C(=O)N1C [Example 9051]	8.00 to 9.00
CCCC[C@H]1C(=O)N(C)[C@@H](CCCC)C(=O)NC(CC(C)C)C(=O)N[C@H](C(=O)NCC(N)=O)CNCC(=O)N[C@@H](Cc2ccc(O)cc2)C(=O)N(C)[C@@H](C)C(=O)N[C@@H](CC(N)=O)C(=O)N2CCC[C@H]2C(=O)N[C@@H](CC(N)=O)C(=O)N[C@@H](CC(C)C)C(=O)N2C[C@H](O)C[C@H]2C(=O)N[C@@H](Cc2c[nH]c3ccccc23)C(=O)N[C@@H](CC(N)=O)C(=O)N[C@@H](Cc2c[nH]c3ccccc23)C(=O)N1C (stereo partly shown) [Example 10001]	8.00 to 9.00
CCCC[C@H]1C(=O)N(C)[C@@H](CCCC)C(=O)NC(CC(C)C)C(=O)N[C@H](C(=O)NCC(N)=O)CNCC(=O)N[C@@H](Cc2ccc(O)cc2)C(=O)N(C)[C@@H](C)C(=O)N[C@@H](CC(N)=O)C(=O)N2CCC[C@H]2C(=O)N[C@@H](CC(N)=O)C(=O)N[C@@H](CC(C)C)C(=O)N2CCC[C@H]2C(=O)N[C@@H](Cc2c[nH]c3ccccc23)C(=O)N[C@@H](CC(N)=O)C(=O)N[C@@H](Cc2c[nH]c3ccccc23)C(=O)N1C (stereo partly shown) [Example 10002]	7.00 to 8.00
CCCC[C@H]1C(=O)N(C)[C@@H](CCCC)C(=O)NC(CC(C)C)C(=O)N[C@H](C(=O)NCC(N)=O)CNCC(=O)N[C@@H](Cc2ccc(O)cc2)C(=O)N(C)[C@@H](C)C(=O)N[C@@H](CC(N)=O)C(=O)N2CCC[C@H]2C(=O)N[C@@H](Cc2cnc[nH]2)C(=O)N[C@@H](CC(C)C)C(=O)N2CCC[C@H]2C(=O)N[C@@H](Cc2c[nH]c3ccccc23)C(=O)N[C@@H](CC(N)=O)C(=O)N[C@@H](Cc2c[nH]c3ccccc23)C(=O)N1C (stereo partly shown) [Example 10003]	8.00 to 9.00
CCCC[C@H]1C(=O)N(C)[C@@H](CCCC)C(=O)N[C@@H](CC(C)C)C(=O)N[C@H](C(=O)NCC(N)=O)CNCC(=O)N[C@@H](Cc2ccc(O)cc2)C(=O)N(C)[C@@H](C)C(=O)N[C@@H](CC(N)=O)C(=O)N2CCC[C@H]2C(=O)N[C@@H](Cc2cnc[nH]2)C(=O)N[C@@H](CCC(N)=O)C(=O)N2C[C@H](O)C[C@H]2C(=O)N[C@@H](Cc2c[nH]c3ccccc23)C(=O)N[C@@H](CO)C(=O)N[C@@H](Cc2c[nH]c3ccccc23)C(=O)N1C [Example 10004]	8.00 to 9.00
CCCC[C@H]1C(=O)N(C)[C@@H](CCCC)C(=O)N[C@@H](CC(C)C)C(=O)N[C@H](C(=O)NCC(N)=O)CNCC(=O)N[C@@H](Cc2ccc(O)cc2)C(=O)N(C)[C@@H](C)C(=O)N[C@@H](CC(N)=O)C(=O)N2CCC[C@H]2C(=O)N[C@@H](Cc2cnc[nH]2)C(=O)N[C@@H](CC(C)C)C(=O)N2CCC[C@H]2C(=O)N[C@@H](Cc2c[nH]c3ccccc23)C(=O)N[C@@H](CO)C(=O)N[C@@H](Cc2cn(CC(=O)O)c3ccccc23)C(=O)N1C [Example 10006]	7.00 to 8.00
CCCC[C@H]1C(=O)N(C)[C@@H](CCCC)C(=O)N[C@@H](CC(C)C)C(=O)N[C@H](C(=O)NCC(N)=O)CNCC(=O)N[C@@H](Cc2ccc(O)cc2)C(=O)N(C)[C@@H](C)C(=O)N[C@@H](CC(N)=O)C(=O)N2CCC[C@H]2C(=O)N[C@@H](Cc2cnc[nH]2)C(=O)N[C@@H](CC(C)C)C(=O)N2C[C@H](O)C[C@H]2C(=O)N[C@@H](Cc2c[nH]c3ccccc23)C(=O)N[C@@H](CO)C(=O)N[C@@H](Cc2cn(CC(=O)O)c3ccccc23)C(=O)N1C [Example 10007]	8.00 to 9.00
CCCC[C@H]1C(=O)N(C)[C@@H](CCCC)C(=O)N[C@@H](CC(C)C)C(=O)N[C@H](C(=O)NCC(N)=O)CNCC(=O)N[C@@H](Cc2ccc(O)cc2)C(=O)N(C)[C@@H](C)C(=O)N[C@@H](CC(N)=O)C(=O)N2CCC[C@H]2C(=O)N[C@@H](Cc2cnc[nH]2)C(=O)N[C@@H](CCC(N)=O)C(=O)N2C[C@H](O)C[C@H]2C(=O)N[C@@H](Cc2c[nH]c3ccccc23)C(=O)N[C@@H](CO)C(=O)N[C@@H](Cc2cn(CC(=O)O)c3ccccc23)C(=O)N1C [Example 10008]	8.00 to 9.00
CCCC[C@H]1C(=O)N(C)[C@@H](CCCC)C(=O)N[C@@H](CC(C)C)C(=O)N[C@H](C(=O)NCC(N)=O)CCNCC(=O)N[C@@H](Cc2ccccc2)C(=O)N(C)[C@@H](C)C(=O)N[C@@H](CC(C)C)C(=O)N2CCC[C@H]2C(=O)N[C@@H](CC(C)C)C(=O)N[C@@H](CC(C)C)C(=O)N2CCC[C@H]2C(=O)N[C@@H](Cc2c[nH]c3ccccc23)C(=O)N[C@@H](CC(C)C)C(=O)N[C@@H](Cc2c[nH]c3ccccc23)C(=O)N1C [Example 10009]	5.00 to 7.00
